Source: patent publication US20130142831A1, “COMPOUNDS FOR INFLAMMATION AND IMMUNE-RELATED USES” (Synta Pharmaceuticals Corp., priority 2004, published 2013)

System: IL-2 production
Test: Inhibition of IL-2 production in PHA-activated Jurkat cells
Format: cell-based
Conditions: Homo sapiens, PHA 2.5 μg/mL, 20 hours
Description: Jurkat cells were placed in a 96 well plate (0.5 million cells per well in 1% FBS medium) then test compounds of this invention were added at different concentrations. After 10 minutes, the cells were activated with PHA (final concentration 2.5 μg/mL) and incubated for 20 hours at 37° C. under CO2. The final volume was 200 μL. Following incubation, the cells were centrifuged and the supernatants collected and stored at −70° C. prior to assaying for IL-2 production. A commercial kit (IL-2 Eli-pair, Diaclone Research, Besancon, France) was used to detect production of IL-2, from which dose response curves were obtained. The IC50 value was calculated as the concentration at which. 50% of maximum IL-2 production after stimulation was inhibited versus a non-stimulation control.

| IC50 (bins given in nM) [nM] | IC50 (bins given with μM limit) [nM] | SMILES |
| --- | --- | --- |
| 100 to 500 | – | Fc1ccc(F)c(NC(=S)Nc2ccc(-n3c(C(F)(F)F)nc4ccccc43)nc2)c1 [Compound 34, N′-[2-(2-trifluoromethyl-benzoimidazol-1-yl)-pyrid-5-yl]-N-(2,5-difluoro-phenyl)-thiourea] |
| 100 to 500 | – | CC(C)(C)c1ccc2c(c1)nc(C(F)(F)F)n2-c1ccc(NC(=O)c2cccc(F)c2F)cc1 [Compound 35, 2,3-Difluoro-N-[4-(2-trifluoromethyl-5-tert-butyl-benzoimidazol-1-yl)-phenyl]-benzamide] |
| 100 to 500 | – | N#Cc1cc(NC(=O)c2cccc(F)c2F)ccc1-n1c(C(F)(F)F)nc2ccccc21 [Compound 37, 2,3-Difluoro-N-[3-cyano-4-(2-trifluoromethyl-benzoimidiazol-1-yl)-phenyl]-benzamide] |
| 100 to 500 | – | O=C(Nc1ccc(-n2c(C(F)(F)F)nc3ccccc32)c(Cl)c1)c1cc(F)ccc1F [Compound 38, 2,5-Difluoro-N-[3-chloro-4-(2-trifluoromethyl-benzoimidazol-1-yl)-phenyl]-benzamide] |
| 100 to 500 | – | Nc1ccc2c(c1)nc(C(F)(F)F)n2-c1ccc(NC(=O)c2cccc(F)c2F)cc1 [Compound 39, 2,3-Difluoro-N-[4-(2-trifluoromethyl-5-amino-benzoimidazol-1-yl)-phenyl]-benzamide] |
| 100 to 500 | – | C[S+]([O-])c1nc2ccccc2n1-c1ccc(NC(=O)c2cccc(F)c2F)cc1 (stereo not drawn) [Compound 40, 2,3-Difluoro-N-[4-(2-methanesulfinyl-benzoimidazol-1-yl)-phenyl]-benzamide] |
| – | > 1000 | CC(C)c1nc2ccccc2n1-c1ccc(NC(=O)c2cccc(F)c2F)cc1 [Compound 49, 2,3-Difluoro-N-[4-(2-isopropyl-benzoimidazol-1-yl)-phenyl]-benzamide] |
| – | > 1000 | O=C(Nc1ccc(-n2c(C(F)(F)F)nc3ccccc32)cc1)Nc1cc(F)ccc1F [Compound 50, N′-[4-(2-trifluoromethy-benzoimidazol-1-yl)-phenyl]-N-(2,5-difluoropheyl)-urea] |
| – | > 1000 | O=C(Nc1ccc(-n2c(C(F)(F)F)nc3ccccc32)cc1)c1cc[n+]([O-])cc1F [Compound 51, 1-Oxo-3-fluoro-N-[4-(2-trifluoromethyl-benzoimidazol-1-yl)-phenyl]-isonicotinamide] |
| – | > 1000 | O=S(=O)(Nc1ccc(-n2c(C(F)(F)F)nc3ccccc32)cc1)c1cccc(F)c1F [Compound 52, 2,3-Difluoro-N-[4-(trifluoromethyl-benzoimidazol-1-yl)-phenyl]-benzenesulfonamide] |
| – | > 1000 | CC(=O)Nc1cc(NC(=O)c2cccc(F)c2F)ccc1-n1c(C(F)(F)F)nc2ccccc21 [Compound 53, 2,3-Difluoro-N-[3-acetylamino-4-(2-trifluoromethyl-benzoimidazol-1-yl)-phenyl]-benzamide] |
| – | > 1000 | O=C(Nc1ccc(-n2cnc3ccccc32)cc1)c1cccc(F)c1F [Compound 54, 2,3-Difluoro-N-[4-(benzoimidazol-1-yl)-phenyl]-benzamide] |
| – | > 1000 | Cc1cc(-n2c(C(F)(F)F)nc3ccccc32)ccc1NC(=O)c1cccc(F)c1F [Compound 55, 2,3-Difluoro-N-[2-methyl-4-(2-trifluoromethyl-benzoimidazol-1-yl)-phenyl]-benzamide] |
| – | > 1000 | O=C(Nc1ccc(-n2c(C(F)(F)F)nc3cc(N4C(=O)c5ccccc5C4=O)ccc32)cc1)c1cccc(F)c1F [Compound 57, 2,3-Difluoro-N-{4-[2-trifluoromethyl-5-(1,3-dioxo-isoindol-2-yl)-benzoimidazol-1-yl]-phenyl}-benzamide] |
| – | > 1000 | Cc1nnsc1C(=O)Nc1ccc(-n2c(C(F)(F)F)nc3cccnc32)cc1 [Compound 58, 4-Methyl-[1,2,3]thiadiazole-5-carboxylic acid {N-[4-(2-trifluoromethyl-imidazo[4,5-b]pyrid-3-yl)-phenyl]} amide] |
| – | > 1000 | O=C(Nc1ccc(-n2c(C(F)(F)F)nc3cc(O)c(O)cc32)cc1)c1cccc(F)c1F [Compound 60, 2,3-Difluoro-N-[4-(2-trifluoromethyl-5,6-dihydroxy-benzoimidazol-1-yl)-phenyl]-benzamide] |
| – | > 1000 | O=C(Nc1ccc(-n2c(C(F)(F)F)nc3cnccc32)cc1)c1cccc(F)c1F [Compound 61, 2,3-Difluoro-N-[4-(2-trifluoromethyl-imidazo[4,5-c]pyrid-1-yl)-phenyl]-benzamide] |
| – | > 1000 | Cc1nnsc1C(=O)Nc1ccc(-n2c(C(F)(F)F)nc3ccccc32)nc1 [Compound 62, 4-Methyl-[1,2,3]thiadiazole-5-carboxylic acid {N-[2-(2-trifluoromethyl-benzoimidazol-1-yl)-pyrid-5-yl]} amide] |

| IC50 (bins given in nM) [nM] | IC50 (bins given with μM limit) [nM] | SMILES |
| --- | --- | --- |
| 100 to 500 | – | COc1ccc2c(c1)nc(C(F)(F)F)n2-c1ccc(NC(=O)c2c(Cl)cc(Cl)cc2Cl)cc1 [Compound 63, 2,4,6-Trichloro-N-[4-(2-trifluoromethyl-5-methoxy-benzoimidazol-1-yl)-phenyl]-benzamide] |
| 100 to 500 | – | O=C(Nc1ccc(-n2c(C(F)(F)F)nc3cc(C(F)(F)F)ccc32)cc1)c1cccc(F)c1F [Compound 64, 2,3-Difluoro-N-{4-[2,5-di-(trifluoromethyl)-benzoimidazol-1-yl]-phenyl}-benzamide] |
| 100 to 500 | – | CS(=O)(=O)c1ccc2c(c1)nc(C(F)(F)F)n2-c1ccc(NC(=O)c2cccc(F)c2F)cc1 [Compound 65, 2,3-Difluoro-N-[4-(2-trifluoromethyl-5-methanesulfonyl-benzoimidazol-1-yl)-phenyl]-benzamide] |
| 100 to 500 | – | CCCCc1ccc(C(=O)Nc2ccc(-n3c(C(F)(F)F)nc4cc(OC)ccc43)cc2)cc1 [Compound 66, 4-Butyl-N-[4-(2-trifluoromethyl-5-methoxy-benzoimidazol-1-yl)-phenyl]-benzamide] |
| – | > 1000 | CC(C)(C)c1cnc(-c2ccc3c(c2)nc(C(F)(F)F)n3-c2ccc(NC(=O)c3cc(F)ccc3F)cc2)o1 [Compound 67, 2,5-Difluoro-N-{4-[2-trifluoromethyl-5-(5-tert-butyl-oxazol-2-yl)-benzoimidazol-1-yl]-phenyl}-benzamide] |
| – | > 1000 | CC(C)(C)c1cnc(-c2ccc3c(c2)nc(C(F)(F)F)n3-c2ccc(NC(=O)c3cccc(F)c3F)cc2)o1 [Compound 68, 2,3-Difluoro-N-{4-[2-trifluoromethyl-5-(5-tert-butyl-oxazol-2-yl)-benzoimidazol-1-yl]-phenyl}-benzamide] |
| 100 to 500 | – | CC(C)(C)c1cnc(-c2ccc3c(c2)nc(C(F)(F)F)n3-c2ccc(NC(=O)c3ccco3)cc2)o1 [Compound 69, Furan-2-carboxylic acid (N-{4-[2-trifluoromethyl-5-(5-tert-butyl-oxazol-2-yl)-benzoimidazol-1-yl]-phenyl}) amide] |
| 100 to 500 | – | O=C(Nc1ccc(-c2c(C(F)(F)F)nc3ccccn23)cc1)c1cccc(F)c1F [Compound 70, 2,3-Difluoro-N-[4-(2-trifluoromethyl-imidazo[1,2-a]pyrid-3-yl)-phenyl]-benzamide] |
| < 100 | – | COc1ccc2c(c1)nc(C(F)(F)F)n2-c1ccc(NC(=O)c2cc(F)c(F)c(F)c2F)cc1 [Compound 71, 2,3,4,5-Tetrafluoro-N-[4-(2-trifluoromethyl-5-methoxy-benzoimidazol-1-yl)-phenyl]-benzamide] |
| 100 to 500 | – | COc1ccc2c(c1)nc(C(F)(F)F)n2-c1ccc(NC(=O)c2ccc(-c3ccccc3)cc2)cc1 [Compound 72, 4-Phenyl-N-[4-(2-trifluoromethyl-5-methoxy-benzoimidazol-1-yl)-phenyl]-benzamide] |
| 100 to 500 | – | COc1ccc2c(c1)nc(C(F)(F)F)n2-c1ccc(NC(=O)c2ccc(I)cc2)cc1 [Compound 73, 4-Iodo-N-[4-(2-trifluoromethyl-5-methoxy-benzoimidazol-1-yl)-phenyl]-benzamide] |
| 100 to 500 | – | COc1ccc2c(c1)nc(C(F)(F)F)n2-c1ccc(NC(=O)c2ccc3ccccc3c2)cc1 [Compound 74, Naphthalene-2-carboxylic acid {N-[4-(2-trifluoromethyl-5-methoxy-benzoimidazol-1-yl)-phenyl]} amide] |
| 100 to 500 | – | COc1ccc2c(c1)nc(C(F)(F)F)n2-c1ccc(NC(=O)c2ccc(C)cc2)cc1 [Compound 76, 4-Methyl-N-[4-(2-trifluoromethyl-5-methoxy-benzoimidazol-1-yl)-phenyl]-benzamide] |
| 100 to 500 | – | COc1ccc2c(c1)nc(C(F)(F)F)n2-c1ccc(NC(=O)c2ccc(C#N)cc2)cc1 [Compound 77, 4-Cyano-N-[4-(2-trifluoromethyl-5-methoxy-benzoimidazol-1-yl)-phenyl]-benzamide] |
| 100 to 500 | – | COc1ccc2c(c1)nc(C(F)(F)F)n2-c1ccc(NC(=O)c2ccc([N+](=O)[O-])cc2)cc1 [Compound 78, 4-Nitro-N-[4-(2-trifluoromethyl-5-methoxy-benzoimidazol-1-yl)-phenyl]-benzamide] |
| 100 to 500 | – | CCc1ccc(C(=O)Nc2ccc(-n3c(C(F)(F)F)nc4cc(OC)ccc43)cc2)cc1 [Compound 79, 4-Ethyl-N-[4-(2-trifluoromethyl-5-methoxy-benzoimidazol-1-yl)-phenyl]-benzamide] |
| 100 to 500 | – | COc1ccc2c(c1)nc(C(F)(F)F)n2-c1ccc(NC(=O)c2ccc(C(F)(F)F)cc2)cc1 [Compound 80, 4-Trifluoromethyl-N-[4-(2-trifluoromethyl-5-methoxy-benzoimidazol-1-yl)-phenyl]-benzamide] |

| SMILES | IC50 (bins given in nM) [nM] | IC50 (bins given with μM limit) [nM] |
| --- | --- | --- |
| COc1ccc2c(c1)nc(C(F)(F)F)n2-c1ccc(NC(=O)c2cc([N+](=O)[O-])cc([N+](=O)[O-])c2)cc1 [Compound 81, 3,5-Dinitro-N-[4-(2-trifluoromethyl-5-methoxy-benzoimidazol-1-yl)-phenyl]-benzamide] | 100 to 500 | – |
